{"source": "paper PMC9230671", "about": "“Fluorochrome Selection for Imaging Intraoperative Ovarian Cancer Probes” (Pharmaceuticals, 2022)", "key": {"SKOV-3 xenograft tumors": {"test_system": "SKOV-3 xenograft tumors", "assay": "NIR fluorescence imaging / biodistribution in SKOV-3 s.c. xenograft models", "assay_type": "in vivo, NSG mice", "conditions": "SKOV-3 s.c. mice, i.v.", "protocol": "In addition to OVCAR-3, the COX-1 low expressing SKOV-3 cell line was subcutaneously xenografted to evaluate the specificity of RR11 and 23 (MSA14). RR11 exerted high tumor fluorescence already two hours after injection (n = 2) with similar organ biodistribution as already observed in OVCAR-3 xenografts (TBR = 1.28; Figure 4A and Figure 5A). 23 (MSA14) was evaluated at 6 and 24 h, with a dose of 100 µM and 500 µM in n = 4 SKOV-3 models. […] However, the tumor fluorescence intensity was not sufficient to discriminate between healthy organs and malignant tissue at low exposure times of 100 ms “ex vivo”. The fluorescence signal in COX-1 low-expressing SKOV-3 tumors might be an indication of non-specific compound accumulation.\nFemale NOD-scid IL2rγ^null (NSG) mice, aged 6 to 25 weeks were maintained under defined floral conditions and no more than five mice were housed in individually ventilated (HEPA-filtered air) cages, kept on a 12 h dark/night schedule at a constant temperature of 21 °C and at 50% relative humidity at the University of Bergen’s animal facility. Observations of body weight and general condition including activity levels, appearance, and food intake were monitored twice weekly, and humane endpoints were defined with the use of score sheets. When indicated, animals were euthanized according to institutional guidelines.\nSingle cell suspensions of SKOV-3 and OVCAR-3 ovarian cancer cells, cultured as previously described, were obtained by washing the adherent cells with PBS and detached with trypsin-EDTA for 3–5 min at 37 °C. For subcutaneous injection (s.c.), cells were resuspended in an ice-cold mixture of 100 µL per insulin syringe (3/10-cc with 30 g needle) comprising 50 μL saline, 25 µL medium, and 25 µL Matrigel (cat# 08-774-391, Corning Inc®, Fisher Scientific, Waltham, MA, USA). SKOV-3 and OVCAR-3 subcutaneous xenograft models were established through lateral flank injection of 5 × 10^6 cells and 1 × 10^6 cells, respectively, under 3.5% sevoflurane inhalation anesthesia (cat# 29960 SevoFlo, Zoetis, Louvain-la-Neuve, Belgium). Mice were imaged with RR11 and MSA14 when the caliper measurements reached 200–500 mm^3 (Volume = (height × width × length × π)/6).\n“In vivo” and “ex vivo” FLI was performed with both COX-1 targeting compounds, the reference compound RR11 and the novel 23 (MSA14), at different concentrations and time points. Prior to FLI, mice were shaved to avoid autofluorescence background signal. The desired concentration (100 µM, 500 µM) of the compound stock solutions in DMSO were freshly diluted with PBS, before 100 µL was injected intravenously into the tail vein. FLI was performed with the IVIS Spectrum In Vivo Imaging System with a λabs 640 ± 15 nm bandpass filter (BP), λem 680 ± 10 nm BP for RR11, and λabs 745 ± 15 nm BP, λem 820 ± 10 nm BP for 23 (MSA14), 0.5–24 h after small molecule administration. All scans were acquired with epi-illumination and auto exposure. Regions of interest (ROI) were manually gated around the tumor, organs, or the whole ventral and lateral positioned mouse and calculated using the Living image software (Perkin Elmer). The ROI of the muscle at the flank region was used to calculate the tumor-to-background (TBR) ratios."}, "COX-1": {"target": "T1, COX-1 (Ovis aries, UniProt P05979)", "T1 construct": "purchased Cayman Chemicals (bought through Sigma-Aldrich) 560131", "T1 sequence (P05979 25-600)": "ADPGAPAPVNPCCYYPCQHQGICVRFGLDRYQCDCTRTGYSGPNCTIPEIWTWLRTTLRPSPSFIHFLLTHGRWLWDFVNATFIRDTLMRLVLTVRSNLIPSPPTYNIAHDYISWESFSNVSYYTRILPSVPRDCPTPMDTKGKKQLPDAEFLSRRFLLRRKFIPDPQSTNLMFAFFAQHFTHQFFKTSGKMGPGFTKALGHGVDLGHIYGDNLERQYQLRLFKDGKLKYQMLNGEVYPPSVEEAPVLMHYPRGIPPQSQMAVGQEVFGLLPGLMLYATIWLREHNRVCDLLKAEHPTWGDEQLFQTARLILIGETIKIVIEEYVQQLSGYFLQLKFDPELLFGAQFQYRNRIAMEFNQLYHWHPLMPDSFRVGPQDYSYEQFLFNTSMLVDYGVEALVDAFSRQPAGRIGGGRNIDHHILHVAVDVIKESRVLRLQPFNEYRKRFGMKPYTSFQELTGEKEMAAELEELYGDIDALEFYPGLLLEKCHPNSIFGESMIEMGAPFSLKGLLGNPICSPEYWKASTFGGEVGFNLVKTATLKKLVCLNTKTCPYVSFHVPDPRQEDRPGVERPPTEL", "assay": "COX-1 inhibition, COX (ovine/human) inhibitor screening assay kit", "assay_type": "biochemical", "protocol": "Cell culture reagents were purchased from Euroclone (Milan, Italy). COX (ovine/human) inhibitor screening assay kit (Catalog No. 560131, Cayman Chemicals, Ann Arbor, MI, USA) was purchased from Sigma-Aldrich, Burlington, MA, USA. […] The other reagents were purchased from Sigma-Aldrich, Burlington, MA, USA.\nThe COX-1/2 inhibition screening experiments were carried out according to the manufacturer’s instructions. The plate was incubated for 60 min at r.t. under shaking and read with the Tecan Infinite 200 Microplate Reader at λ = 405 nm.\nThe graph between percent inhibition of the enzyme and corresponding concentration of the compound provided IC50 values for the probe compounds."}}, "data": [{"molecule": "CCN1/C(=C/C=C/C=C/C=C/C2=[N+](CCCCCC(=O)NCCCCNC(=O)Cc3onc(-c4ccc(OC)cc4)c3-c3ccc(OC)cc3)c3ccc4ccccc4c3C2(C)C)C(C)(C)c2c1ccc1ccccc21", "note": "[23 (MSA14), 3-(6-(4-(2-(3,4-Bis(4-methoxyphenyl)isoxazole-5-yl)acetamido)butyl)amino-6-oxohexyl)-2-[7-(1,3-dihydro-1,1-dimethyl-3-ethyl-2H-benz[e]indolin-2-yl-idene)-1,3,5-heptatrienyl]-1,1-dimethyl-3-(6-carboxilato-hexyl)-1H-benz[e]indolium chloride]", "values": [{"measurement": "average TBR", "setting": "SKOV-3 xenograft tumors; 6 h, 100 µM", "result": 1.23}, {"measurement": "average TBR", "setting": "SKOV-3 xenograft tumors; 6 h, 500 µM", "result": 1.49}, {"measurement": "average TBR", "setting": "SKOV-3 xenograft tumors; 24 h, 100 µM", "result": 1.96}, {"measurement": "average TBR", "setting": "SKOV-3 xenograft tumors; 24 h, 500 µM", "result": 1.5}, {"measurement": "IC50", "setting": "COX-1", "result": 0.087, "unit": "µM"}, {"measurement": "inhibition at 50 µM", "setting": "COX-1; at 50 µM compound final concentration, read-out: COX-1 % inhib.", "result": 57, "unit": "%"}]}, {"molecule": "COc1ccc(-c2noc(CC(=O)NCCCCNc3cc4[o+]c5cc(N(C)C)ccc5nc4c4ccccc34)c2-c2ccc(OC)cc2)cc1.[Cl-]", "note": "[RR11, N-[4-(9-dimethylimino-9H-benzo[a]phenoxazin-5-ylamino)butyl]-2-(3,4-bis(4-methoxyphenyl)isoxazol-5-yl)acetamide chloride, reference compound]", "values": [{"measurement": "tumor-to-background ratio (TBR)", "setting": "SKOV-3 xenograft tumors; two hours after injection", "result": 1.28}, {"measurement": "IC50", "setting": "COX-1", "result": 0.032, "unit": "µM"}, {"measurement": "SI (selectivity index)", "setting": "COX-1", "result": 75}, {"measurement": "COX-1 % inhib.", "setting": "COX-1; at 50 µM compound final concentration", "result": 83, "unit": "%"}]}]}
